Reference: US7253149B2, “Compounds and methods for modulating cell-adhesion mediated drug resistance” (University of South Florida, priority 2000, dated 2007)
Like-named read-outs stand apart in the source and are kept apart here. Marks after values point to notes of the source that are not given here. One block for each molecule: values may come before it. Where no end group is shown, it is not given here. [ ]: non-standard residue; d: D form.

Assays:
K562 cells [1] = type: cell-based
K562 cells [2] = assay: MTT cytotoxicity assay, FN adhered vs suspension K562 cells; type: cell-based
Description: Plastic 96-well Immunosorp plates (Nunc, Denmark) are coated with 50 μl (40 μg/ml) FN (Life Technologies) or BSA overnight. Cells are washed once and resuspended in serum-free RPMI 1640, then 2×10^4 (K562) cells are added to each FN coated well. 8×10^3 (K562) cells are added to BSA coated wells. Cells are incubated for 2 hours at 37° C., washed with serum free media, and put back into serum-containing media. Following 24 hours in a tissue culture incubator, drug or vehicle control is added to each well for 90 minutes, media is removed and replaced by drug-free media for 96 hours. In some experiments, the drug is allowed to remain in each well for 96 hours. 50 μl 3-[4,5-Dimethylthiazol-2-yl]-2,5-diphenyltetrazolium bromide;Thiazolyl blue (MTT dye) (Sigma) is added to each well for 4 hours, plates are centrifuged and each well aspirated. Dye is solubilized with 100 μl DMSO and plates are read at 540 nm on an automated microtiter plate reader. A blank well containing only medium and drug is also run as a control in all experiments. IC50 values are calculated by linear regression analysis of percent survival vs. drug concentration.
The MTT assay is used to detect differences in the drug sensitivity of FN adhered vs. suspension-cultured cells following a 90 minutes or 96 hours (continuous) exposure to either mitoxantrone or melphalan (L-phenylalanine mustard or LPAM). After a 96 hour period in a cell incubator, cell survival is determined by the ability of viable cells to reduce MTT dye to formazan. IC50 values are derived through linear regression of the log-linear dose-response plots for each cell line to each drug. Student's T-test is used to analyze differences in drug response using data collected from at least three different experiments. FIGS. 8A and 8B depict representative continuous exposure experiments using mitoxantrone and LPAM, respectively.

fibronectin = assay: cell-based or functional assay
U937 cells = assay: Microtiter adhesion assay, adhesion of U937 cells to fibronectin; type: cell-based; details: 5 μg/ml to 80 μg/ml, FIG. 26
[3] = target: integrin β7 subunit (human) (UniProt P26010); assay: flow cytometry (FACS) on 8226/DOX6 cells, FITC-conjugated secondary antibody
Sequence of UniProt P26010 (P26010 20-798): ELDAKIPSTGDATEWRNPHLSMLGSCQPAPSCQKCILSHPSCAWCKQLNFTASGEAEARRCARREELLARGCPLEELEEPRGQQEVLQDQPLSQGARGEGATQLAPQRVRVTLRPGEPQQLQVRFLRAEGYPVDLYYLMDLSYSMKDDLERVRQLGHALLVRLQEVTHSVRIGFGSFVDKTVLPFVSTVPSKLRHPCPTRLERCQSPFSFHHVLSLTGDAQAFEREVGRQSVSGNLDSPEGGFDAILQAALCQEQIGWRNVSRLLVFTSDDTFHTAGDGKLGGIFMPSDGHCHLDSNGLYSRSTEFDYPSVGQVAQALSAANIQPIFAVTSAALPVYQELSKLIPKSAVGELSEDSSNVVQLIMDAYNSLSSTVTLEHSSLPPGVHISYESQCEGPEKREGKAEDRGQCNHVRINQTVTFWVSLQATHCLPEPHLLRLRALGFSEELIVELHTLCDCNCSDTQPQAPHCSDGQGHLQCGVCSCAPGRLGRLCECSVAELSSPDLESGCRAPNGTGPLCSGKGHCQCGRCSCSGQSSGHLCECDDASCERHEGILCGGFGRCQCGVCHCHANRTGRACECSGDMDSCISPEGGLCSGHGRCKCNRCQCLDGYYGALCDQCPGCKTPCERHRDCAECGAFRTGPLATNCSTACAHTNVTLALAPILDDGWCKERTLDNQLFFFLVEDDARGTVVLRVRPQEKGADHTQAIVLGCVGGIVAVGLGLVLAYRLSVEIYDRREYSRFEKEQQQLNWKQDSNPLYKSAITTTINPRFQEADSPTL

[4] = target: integrin β7 subunit (human) (UniProt P26010); assay: flow cytometry (FACS) on 8226/LR5 cells, FITC-conjugated secondary antibody
[5] = target: integrin β7 subunit (human) (UniProt P26010); assay: flow cytometry (FACS) on 8226/S cells, FITC-conjugated secondary antibody
[6] = target: integrin α4 subunit (CDw49d) (human) (UniProt P13612); assay: flow cytometry (FACS) on 8226/DOX6 cells, FITC-conjugated secondary antibody
[7] = target: integrin α4 subunit (CDw49d) (human) (UniProt P13612); assay: flow cytometry (FACS) on 8226/LR5 cells, FITC-conjugated secondary antibody
[8] = target: integrin α4 subunit (CDw49d) (human) (UniProt P13612); assay: flow cytometry (FACS) on 8226/S cells, FITC-conjugated secondary antibody
K562 cells [9] = assay: Adhesion of K562 cells to FN in presence of AG957; type: cell-based; details: concentrations of inhibitor used in cytotoxicity assays
Description: Cellular adhesion to FN is determined.
The BCR/ABL kinase is believed to be critical to the survival of CML cells through its effects on a number of signal transduction pathways. Inhibitors of this fusion protein show promise as apoptosis-inducing drugs in CML cells. BCR/ABL inhibition by relatively high doses of the tyrphostin AG957 can have negative effects on FN adhesion. At the concentrations of inhibitor used in cytotoxicity assays, the adhesion of K562 cells to FN is not affected by more than 20–40 percent.

[10] = system: BCR/ABL-associated tyrosine kinase activity; assay: Anti-phosphotyrosine immunoblotting of AG957 treated K562 cells; details: 20 μM AG957, four hours
[11] = target: integrin α5 subunit (CDw49e) (human) (UniProt P08648); assay: flow cytometry (FACS) on 8226/DOX6 cells, FITC-conjugated secondary antibody
[12] = target: integrin α5 subunit (CDw49e) (human) (UniProt P08648); assay: flow cytometry (FACS) on 8226/LR5 cells, FITC-conjugated secondary antibody
[13] = target: integrin α5 subunit (CDw49e) (human) (UniProt P08648); assay: flow cytometry (FACS) on 8226/S cells, FITC-conjugated secondary antibody
[14] = target: VLA-5 (α5β1 integrin) (human) (UniProt P08648); assay: cell-based or functional assay
8226/S = type: cell-based, human
[15] = system: K562/pcDNA3.1 and K562/VLA-4 cells; assay: Annexin V apoptosis analysis of α4 and empty vector transfectants adhered to FN with blocking antibodies; type: cell-based; details: for level of cytoprotection in comparison to drug treated suspension cells: 100 μM LPAM 90 minutes, 24 hours; for protection against melphalan-induced apoptosis: α5 blocking antibody prior to adhesion
8226/S myeloma cells [16] = assay: Annexin V apoptotic analysis, FN-adhered vs non-adhered 8226/S cells; type: cell-based, human; details: 50 uM melphalan, 24 hours
8226/S myeloma cells [17] = assay: MTT cytotoxicity assay, FN-adhered vs non-adhered 8226/S cells; type: cell-based, human; details: for IC50: Homo sapiens

Molecule: CC[C@]1(O)C[C@H]2CN(CCc3c([nH]c4ccccc34)[C@@](C(=O)OC)(c3cc4c(cc3OC)N(C=O)[C@H]3[C@@](O)(C(=O)OC)[C@H](OC(C)=O)[C@]5(CC)C=CCN6CC[C@]43[C@@H]65)C2)C1 [VCR, vincristine]
- FN-mediated protection against the drug (K562 cells [1]; continuous exposure): not significant

Molecule: O=C1c2c(O)ccc(O)c2C(=O)c2c(NCCNCCO)ccc(NCCNCCO)c21 [mitoxantrone]
- Fold resistance FN adhered vs suspension (K562 cells [2]; 90 min. exposure): approximately 3.7 fold
- Fold resistance FN adhered vs suspension (K562 cells [2]; continuous exposure): 6.8 fold

- level of cytoprotection against melphalan-induced apoptosis in comparison to drug treated suspension cells (Annexin V, flow cytometry) (fibronectin): 20.6 percent
Molecule: VLA-4 (α4β1 integrin, Very Late Activation Antigen 4) (from UniProt P13612 34-1032; P05556 21-798)

Molecule: kmviywkag ([dK][dM][dV][dI][dY][dW][dK][dA]G) [RZ-3, D-amino acid peptide Lys-Met-Val-Ile-Tyr-Trp-Lys-Ala-Gly, each amino acid a D-amino acid]
- effect on adhesion of U937 cells to FN (U937 cells): effective in preventing FN adhesion

- mean fluorescence intensity [3]: 18.5
- mean fluorescence intensity [4]: 40.2
- mean fluorescence intensity [5]: 5.72
Molecule: monoclonal antibody FIB504 (anti-β7)

- mean fluorescence intensity [6]: 69
- mean fluorescence intensity [7]: 46.5
- mean fluorescence intensity [8]: 10.4
Molecule: monoclonal antibody P4G9 (anti-CDw49d, α4)

Molecule: COC(=O)c1ccc(NCc2cc(O)ccc2O)cc1 [AG957]
- effect on adhesion of K562 cells to FN (K562 cells [9]): 20–40%
- BCR/ABL associated tyrosine phosphorylation [10]: completely abrogated
- fold resistance of FN adhered cells over suspension cells (K562 cells [2]; AG957 for 96 hours): 3.6
- IC50 (K562 cells [2]; AG957 for 96 hours, three independent experiments, read-out: mean IC50 FN adhered cells): 12.9 µM
- IC50 (K562 cells [2]; AG957 for 96 hours, three independent experiments, read-out: mean IC50 suspension grown cells): 3.6 µM

- level of cytoprotection against melphalan-induced apoptosis in comparison to drug treated suspension cells (Annexin V, flow cytometry) (fibronectin): 29.9 percent
Molecule: VLA-5 (α5β1 integrin) (from UniProt P08648 42-1049; P05556 21-798) (receptor)

- mean fluorescence intensity [11]: 7.32
- mean fluorescence intensity [12]: 11.9
- mean fluorescence intensity [13]: 14.2
- level of cytoprotection against melphalan-induced apoptosis in comparison to drug treated suspension cells (Annexin V, flow cytometry) [14]: 0 percent
Molecule: monoclonal antibody P1D6 (anti-CDw49e, α5)

Molecule: N[C@@H](Cc1ccc(N(CCCl)CCCl)cc1)C(=O)O [LPAM, L-phenylalanine nitrogen mustard]
- effect of acute exposure on cell surface integrin expression (8226/S): no immediate effects
- level of cytoprotection in comparison to drug treated suspension cells ([15]; K562/VLA-4 adhering through both α4 and α5): 30.0±1.5%
- level of cytoprotection in comparison to drug treated suspension cells ([15]; K562/pcDNA3.1 adhered through α5 alone): 29.9±5.3%
- protection against melphalan-induced apoptosis ([15]; K562/VLA-4): 20.6±1.9%
- protection against melphalan-induced apoptosis ([15]; K562/pcDNA3.1): 0±11.1%
- percentage of apoptotic cells, FN-adhered (8226/S myeloma cells [16]): 16.53%
- percentage of apoptotic cells, non-adhered (8226/S myeloma cells [16]): 21.5%
- IC50 (K562 cells [2]; Homo sapiens, K562, 1.5 h, 90 min. exposure, FN adhered, read-out: Fibronectin mean IC50): 190 µM
- IC50 (K562 cells [2]; Homo sapiens, K562, 1.5 h, 90 min. exposure, read-out: Suspension mean IC50): 29.3 µM
- IC50 (K562 cells [2]; Homo sapiens, K562, 1.5 h, 90 minutes exposure, text b188, read-out: mean IC50 suspension (printed without exponent and unit)): 29.3 µM
- IC50 (K562 cells [2]; Homo sapiens, K562, continuous (96 hours) exposure, FN adhered, read-out: Fibronectin mean IC50): 57.3 µM
- IC50 (K562 cells [2]; Homo sapiens, K562, continuous (96 hours) exposure, read-out: Suspension mean IC50): 25.5 µM
- Fold resistance FN adhered vs suspension (K562 cells [2]; continuous exposure): 2.25 fold
- FN: mean death (K562 cells [1]; 100 μM, 1 hr): 11.0 ± 8.3
- Suspension: mean death (K562 cells [1]; 100 μM, 1 hr): 37.5 ± 24.0
- % Control death (K562 cells [1]; 100 μM, 1 hr, FN vs suspension): 29.3* %
- FN: mean death (K562 cells [1]; 100 μM, cont. exp.): 23.3 ± 6.4
- Suspension: mean death (K562 cells [1]; 100 μM, cont. exp.): 39.8 ± 3.2
- % Control death (K562 cells [1]; 100 μM, cont. exp., FN vs suspension): 58.5* %
- IC50 (8226/S myeloma cells [17]; read-out: mean IC50 value for FN-adhered cells): 48 µM
- IC50 (8226/S myeloma cells [17]; read-out: mean IC50 value for cells grown on BSA): 30 µM
- mean difference FN-adhered vs BSA (8226/S myeloma cells [17]; n=3): 1.7

Molecule: Nc1ccn([C@@H]2O[C@H](CO)[C@@H](O)[C@@H]2O)c(=O)n1 [Ara-C]
- % Control death (K562 cells [1]): 54.9* %
- FN: mean death (K562 cells [1]): 6.2 ± 1.6
- Suspension: mean death (K562 cells [1]): 11.3 ± 5.5

Molecule: COc1cccc2c1C(=O)c1c(O)c3c(c(O)c1C2=O)C[C@@](O)(C(=O)CO)C[C@@H]3O[C@H]1C[C@H](N)[C@H](O)[C@H](C)O1 [doxorubicin, Doxorubicin]
- effect of acute exposure on cell surface integrin expression (8226/S; wide range of concentrations, 1–48 hours): no immediate effects
